Measured values: patent publication US20140364422A1, “Aqueous Pharmaceutical Composition With Enhanced Stability” (NOVARTIS AG, priority 2012, published 2014)

Assays:
[1] = Solubility/clarity and freeze-thaw of 0.5% and 1.0% olopatadine in native guar with HPCD (Table 5-1); type: physicochemical; details: physiologic pH of 7; for Olopatadine solubility: 0.17% native guar
Description: (§1) Various concentrations of HPCD were used in the formulations. The formulations were filled in glass scintillation vials and in LDPE Drop-Tainers. The formulations were evaluated for clarity using UV light.
Formulation Compositions Containing 0.5% and 1.0% Olopatadine in 0.17% Native Guar and 1% to 6% Hydroxypropyl-Beta-Cyclodextrin (HPCD).

[2] = test system: late phase allergy symptoms; assay: Efficacy of olopatadine aqueous ophthalmic solutions in reducing late phase allergy symptoms; type: in vivo
Text: Olopatadine is a known compound that can be obtained by the methods disclosed in U.S. Pat. No. 5,116,863, the entire contents of which are hereby incorporated by reference in the present specification for all purposes. Olopatadine is an antihistamine (as well as anticholinergic) and mast cell stabilizer. Olopatadine is a selective histamine H1 antagonist. When included, the composition of the present invention contains at least 0.1%, more typically at least 0.33% or 0.55%, even more typically at least 0.65% or 0.67%, still more typically at least 0.7%, but typically no greater than 1.5% more typically no greater than 1.0%, still more typically no greater than 0.8%, possibly no greater than 0.75% and even possibly no greater than 0.72% or 0.6% of olopatadine where concentrations of olopatadine typically represent concentrations of olopatadine in free base form if the olopatadine is added to the composition as a salt. […] Advantageously, for the composition of the present invention, lower concentrations (e.g., at least 0.50 w/v %, at least 0.55 w/v %, or at least 0.60 w/v %) may show significant improvements and even possibly statistically significant improvements in reducing late phase allergy symptoms.

[3] = Solubility/clarity and freeze-thaw of 1.0% olopatadine in native guar with HPCD (Table 4-1); type: physicochemical; details: 0.17% native guar, approximately 5% or more HPCD, physiologic pH of approximately 7
Description: as §1

Structure (SMILES): CN(C)CC/C=C1/c2ccccc2COc2ccc(CC(=O)O)cc21 [Olopatadine, (Z)-11-(3-dimethylaminopropylidene)-6,11-dihydro-dibenz-[b,e]oxepin-2-acetic acid]
- Olopatadine solubility ([1]; HPCD at or above approximately 2%): 0.5%
- Olopatadine solubility ([1]; HPCD at or above approximately 4%): 1%
- concentration of cyclodextrin that can solubilize Olopatadine ([1]; 0.5% Olopatadine together with 0.17% guar): approximately 2%
- concentration of cyclodextrin that can solubilize Olopatadine ([1]; 0.6% Olopatadine together with 0.17% guar): ~4%
- olopatadine concentration at which efficacy in reducing late phase allergy symptoms begins to show improvement [2]: greater than 0.5 w/v %
- olopatadine concentration at which statistically significant improvements in reducing late phase allergy symptoms begin ([2]; about 0.7 w/v % and above): at least 0.7 w/v %
- Olopatadine concentration solubilized [3]: 1%
